In US20250340519A1, “RADIOLABELLED COMPOUND” (OXFORD UNIVERSITY INNOVATION LIMITED, priority 2018, published 2025):
Values joined by “and” are separate entries in the source; they are usually repeats but may differ in a detail not shown here. Identical values can stand only once.

System: CaNT allograft
Experiment: Ex vivo biodistribution in CaNT allograft bearing CBA/Carl mice
Settings: for Ex vivo biodistribution Blood / Ex vivo biodistribution Bone / Ex vivo biodistribution Brain / Ex vivo biodistribution Caecum / Ex vivo biodistribution Fat / Ex vivo biodistribution Gallbladder / Ex vivo biodistribution Heart / Ex vivo biodistribution Kidney / Ex vivo biodistribution Large intestine / Ex vivo biodistribution Liver / Ex vivo biodistribution Lung / Ex vivo biodistribution Muscle / Ex vivo biodistribution Pancreas / Ex vivo biodistribution Skin / Ex vivo biodistribution Spleen / Ex vivo biodistribution Stomach / Ex vivo biodistribution Tumour: CaNT allograft mice, 1 h p.i.; for tumour uptake (group mean): CaNT tumours
Protocol: All animal procedures were performed in accordance with the UK Animals (Scientific Procedures) Act 1986 and with local ethical committee approval. Animals were housed in IVC cages in sex-matched groups up to 5 per cage, in an artificial day-night cycle facility, with ad libitum access to food and water. Tumour xenografts or allografts were generated by subcutaneous injection of PANC-1 or Capan-1 cell suspensions in the hind flank of balb/c nu/nu animals. CaNT xenografts were generated by harvesting CaNT tumours from donor animals, and injecting a tumour homogenate subcutaneously in the flank of wild type CBA/Carl mice. Tumours were irradiated (10 Gy, 2 Gy/min) using a 300 kV X-ray device.
Dynamic PET/CT images were acquired following an intravenous bolus administration of [^18F]-olaparib. Biodistribution studies, where selected tissues were harvested, were performed 1 h post injection. Some animals were also administered an excess of cold, unlabelled olaparib for evaluating the specificity of tumour uptake. EF5, a hypoxia-selective marker, was injected 2 h before culling of the animal. Digital autoradiography was performed on tumour sections. Image analysis was performed using PMOD.
The murine adenocarcinoma NT (CaNT) was implanted subcutaneously onto the right thigh of 6-7 week-old female CBA/Carl mice. Fifty μL of a crude cell suspension, prepared by mechanical dissociation of an excised tumor from a donor animal, was injected. Tumors were selected for imaging when the geometric mean diameter reached 6-8 mm (volumes calculated as above), approximately 3 weeks after implantation (Kersemans, V., et al. Hypoxia imaging using PET and SPECT: the effects of anesthetic and carrier gas on [Cu]-ATSM, [Tc]-HL91 and [F]-FMISO tumor hypoxia accumulation. PloS one 6, e25911, 2011).
Two hours prior to PET/CT imaging, animals were exposed to X-irradiation of the tumour (10 Gy or sham) (see schedule in FIG. 13). Radiation was delivered using a Gulmay 320 kV X-irradiator; 2.0 Gy/min. Anaesthesia was maintained at 2.5% isoflurane throughout the duration of the irradiation, and animals were allowed to recover. To study the relationship of PARP1 expression, ^18F-olaparib uptake and hypoxia, animals were administered 0.6 μg in 200 μL (0.9% saline) intraperitoneally, one hour prior to PET/CT imaging. Naïve CBA/Carl mice, not bearing tumours, were not irradiated, nor was EF5 administered.
Dynamic PET/CT images were acquired using a VECTor ^4CT integrated PET/CT system. Mice were anaesthetised by 4% isoflurane gas (0.5 L/min O2) and placed on a custom-built imaging cradle in a prone position. Animals mice were intravenously injected with [^18F]-olaparib or (3-5 MBq, 8-11 GBq/μmol, through a tail vein catheter, and dynamic imaging was performed over 45-60 min after radiolabelled compound administration. PET acquisition (150 s per frame, using list mode acquisition) using an ultra-high resolution rat/mouse 1.8 mm collimator, followed by a cone-beam CT scan (55 kV, 0.19 mA) for anatomical reference and attenuation correction. Anaesthesia was maintained at 2.5% isoflurane throughout the duration of the image acquisition. PET images were reconstructed using U-SPECT-Rec3.22 software (MILabs, Utrecht, The Netherlands), applying a pixel-based algorithm with 8 subsets, 6 iterations and 0.8 mm voxel size for ^18F (energy window settings 477.9-584.1 keV).
After PET/CT image acquisition, animals were euthanized by cervical dislocation and selected organs, tissues and blood were removed. The amount of radioactivity in each organ was measured using a 2480 WIZARD^2 gamma counter (PerkinElmer). Counts per minute were converted into MBq using a calibration curve generated from known standards. Values were decay-corrected to the time of injection, and the percentage of the injected dose per gram (% ID/g) of each tissue was calculated.

[1] = + IR (10 Gy), individual animals
[2] = + block (excess cold olaparib), individual animal
[3] = tracer alone, individual animals

O=C(c1cc(Cc2n[nH]c(=O)c3ccccc23)ccc1[18F])N1CCN(C(=O)C2CC2)CC1 [[^18F]olaparib]
Ex vivo biodistribution Blood [1]: 9.79 % ID/g and 3.12 % ID/g
Ex vivo biodistribution Bone [1]: 15.7 % ID/g and 11.5 % ID/g
Ex vivo biodistribution Brain [1]: 0.20 % ID/g and 0.25 % ID/g
Ex vivo biodistribution Caecum [1]: 42.9 % ID/g and 44.6 % ID/g
Ex vivo biodistribution Fat [1]: 2.52 % ID/g and 2.34 % ID/g
Ex vivo biodistribution Gallbladder [1]: 155 % ID/g and 57.3 % ID/g
Ex vivo biodistribution Heart [1]: 8.74 % ID/g and 7.03 % ID/g
Ex vivo biodistribution Kidney [1]: 24.5 % ID/g and 19.0 % ID/g
Ex vivo biodistribution Large intestine [1]: 60.1 % ID/g and 47.0 % ID/g
Ex vivo biodistribution Liver [1]: 93.2 % ID/g and 100 % ID/g
Ex vivo biodistribution Lung [1]: 10.9 % ID/g and 9.61 % ID/g
Ex vivo biodistribution Muscle [1]: 5.45 % ID/g and 5.31 % ID/g
Ex vivo biodistribution Pancreas [1]: 29.5 % ID/g and 23.6 % ID/g
Ex vivo biodistribution Skin [1]: 5.02 % ID/g and 5.12 % ID/g
Ex vivo biodistribution Spleen [1]: 69.0 % ID/g and 58.3 % ID/g
Ex vivo biodistribution Stomach [1]: 9.40 % ID/g and 4.20 % ID/g
Ex vivo biodistribution Tumour [1]: 1.43 % ID/g and 1.92 % ID/g
Ex vivo biodistribution Blood [2]: 4.00 % ID/g
Ex vivo biodistribution Bone [2]: 5.18 % ID/g
Ex vivo biodistribution Brain [2]: 0.22 % ID/g
Ex vivo biodistribution Caecum [2]: 101 % ID/g
Ex vivo biodistribution Fat [2]: 1.57 % ID/g
Ex vivo biodistribution Gallbladder [2]: 194 % ID/g
Ex vivo biodistribution Heart [2]: 2.51 % ID/g
Ex vivo biodistribution Kidney [2]: 8.45 % ID/g
Ex vivo biodistribution Large intestine [2]: 61.2 % ID/g
Ex vivo biodistribution Liver [2]: 74.3 % ID/g
Ex vivo biodistribution Lung [2]: 2.29 % ID/g
Ex vivo biodistribution Muscle [2]: 2.65 % ID/g
Ex vivo biodistribution Pancreas [2]: 3.41 % ID/g
Ex vivo biodistribution Skin [2]: 1.16 % ID/g
Ex vivo biodistribution Spleen [2]: 2.41 % ID/g
Ex vivo biodistribution Stomach [2]: 4.09 % ID/g
Ex vivo biodistribution Tumour [2]: 0.98 % ID/g
Ex vivo biodistribution Blood [3]: 1.78 % ID/g and 8.00 % ID/g
Ex vivo biodistribution Bone [3]: 11.7 % ID/g and 10.2 % ID/g
Ex vivo biodistribution Brain [3]: 0.29 % ID/g and 0.23 % ID/g
Ex vivo biodistribution Caecum [3]: 32.5 % ID/g and 56.2 % ID/g
Ex vivo biodistribution Fat [3]: 7.19 % ID/g and 1.12 % ID/g
Ex vivo biodistribution Gallbladder [3]: 953 % ID/g and 126 % ID/g
Ex vivo biodistribution Heart [3]: 7.34 % ID/g and 0.00 % ID/g
Ex vivo biodistribution Kidney [3]: 23.9 % ID/g and 21.0 % ID/g
Ex vivo biodistribution Large intestine [3]: 24.0 % ID/g and 47.8 % ID/g
Ex vivo biodistribution Liver [3]: 84.6 % ID/g and 110 % ID/g
Ex vivo biodistribution Lung [3]: 12.5 % ID/g and 9.73 % ID/g
Ex vivo biodistribution Muscle [3]: 5.84 % ID/g and 4.63 % ID/g
Ex vivo biodistribution Pancreas [3]: 15.1 % ID/g and 20.8 % ID/g
Ex vivo biodistribution Skin [3]: 3.82 % ID/g and 4.65 % ID/g
Ex vivo biodistribution Spleen [3]: 43.3 % ID/g and 47.0 % ID/g
Ex vivo biodistribution Stomach [3]: 6.17 % ID/g and 12.8 % ID/g
Ex vivo biodistribution Tumour [3]: 1.48 % ID/g and 2.83 % ID/g
tumour uptake (group mean) (excess cold olaparib): 0.80±0.19 % ID/g
tumour uptake (group mean) (tracer alone): 1.71±0.59 % ID/g
